Laboratory results taken from patent publication US6670183B2, “88kDa tumorigenic growth factor and antagonists” (A & G Pharmaceutical, Inc., priority 1997, dated 2003).

Assays:
[1] = system: GP88; experiment: regulation of GP88 expression in 1246, 1246-3A and PC cells, Northern and Western blot; format: cell-based, mouse; conditions: 1246 cells
Protocol: Fifteen or twenty micrograms of total RNA per sample were subjected to electrophoresis on a denaturing 1.2% agarose gel containing 0.22 M formaldehyde in 1×MOPS (10×MOPS: 0.2 M MOPS, 50 mM NaOAc 10 mM EDTA). RNA was blotted on nitrocellulose membrane (MSI Inc., Westboro, Mass.) by overnight capillary transfer in 10×SSC (20×SSC=3 M NaCl, 0.3 M Na Citrate pH 7.0). […] Results were quantitated by densitometric scanning. Ribosomal protein L32 mRNA was detected as internal standard for normalizing RNA loading.
Amounts of cell lysate and culture medium to be analyzed were normalized by cell number of 18×10^5 and 3×10^5 respectively. […] Proteins were electro transferred to immobilon membranes and GP88 detected using anti K19T antibody conjugated to horseradish peroxidase and detected by enhanced chemiluminescence (ECL).
GP88 expression was examined in 1246 cells in different culture conditions such as defined medium and serum containing medium. It was shown that the level of expression of GP88 mRNA (measured by Northern blot analysis) and protein (measured by Western blot analysis) in 1246 and in 1246-3A cells is inhibited when the cells are treated with 2% fetal bovine serum indicating the presence of circulating inhibitors of GP88 expression in fetal bovine serum (FIG. 1C). […]

[2] = system: GP88 mRNA; experiment: regulation of GP88 mRNA expression in MDA MB-453 cells; format: cell-based, human

| Substance | GP88 mRNA expression [1] | GP88 mRNA expression [2] |
| --- | --- | --- |
| EGF: epidermal growth factor | stimulated |  |
| insulin: hormone |  | stimulated |
